# Results: patent publication US9023789B2, “Amylin analogs and pharmaceutical compositions thereof” (Novo Nordisk A/S, priority 2012, dated 2015)
# Like-named read-outs stand apart in the source and are kept apart here. Numbered stars: 1 amine (or outer) side, 2 acyl side, 3 side chain; on linkers, the order of the positions; unused ones are H or OH. Bridge positions count the residues as written; N and C are the ends. Peptide text beside a SMILES is read from it. * marks the point of attachment. C20 diacid = O=C(O)CCCCCCCCCCCCCCCCCCC(=O)*; γGlu = O=C(O)[C@H](CCC(=O)[*:2])N[*:1]
# Tests used:
# [1] = target: T1, human amylin receptor (membranes from Amylin 3(a)/CRE-luc cells) (Homo sapiens, UniProt O60896+P30988); assay: ASSAY (V) binding to the human amylin receptor (SPA, 125I-rat amylin); conditions: for IC50: Table 4, read-out: hAmylin-R bind IC50;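 as to all read-outs here: competition binding of cell membranes (35 ng/µL) mixed with SPA beads in 384-well plates at 40 µL total volume, read by scintillation counting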
# T1 construct: expressed in transfected cells
# T1 sequence (P30988 25-474): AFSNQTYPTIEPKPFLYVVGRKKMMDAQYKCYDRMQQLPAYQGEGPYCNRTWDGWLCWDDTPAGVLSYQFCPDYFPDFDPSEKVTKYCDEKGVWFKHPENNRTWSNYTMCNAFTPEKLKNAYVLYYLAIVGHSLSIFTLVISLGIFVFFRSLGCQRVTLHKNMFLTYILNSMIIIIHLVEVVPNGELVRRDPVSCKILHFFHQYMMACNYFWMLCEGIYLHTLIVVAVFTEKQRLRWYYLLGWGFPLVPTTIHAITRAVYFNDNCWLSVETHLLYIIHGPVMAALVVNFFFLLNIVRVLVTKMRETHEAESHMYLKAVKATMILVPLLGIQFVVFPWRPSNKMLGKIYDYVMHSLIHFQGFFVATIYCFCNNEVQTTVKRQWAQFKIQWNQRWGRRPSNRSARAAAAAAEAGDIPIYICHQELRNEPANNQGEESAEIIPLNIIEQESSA
# T1 sequence (O60896 24-148 partner): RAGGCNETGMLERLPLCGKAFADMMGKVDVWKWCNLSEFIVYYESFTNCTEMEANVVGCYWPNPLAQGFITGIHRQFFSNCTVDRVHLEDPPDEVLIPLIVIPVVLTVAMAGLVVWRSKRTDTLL
# [2] = ASSAY (IV) determination of solubility; type: physicochemical
# Method in brief: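 Solubility measured by UPLC of supernatant after centrifugation, following 18 h at room temperature. Peptide ([…] in water) was diluted 1:1 into 100 mM glycylglycine (pH 3.0, 4.0, 5.0) or bistrispropane (pH 6.0-8.0).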
# [3] = Table 5, selectivity, hCTR bind IC50 / hAmylin-R bind IC50
# [4] = Table 7, human binding selectivity, included for comparison
# [5] = bistrispropane buffer, pH 6.5, read-out: Solubility pH 6.5 Concentration
# [6] = bistrispropane buffer, pH 7.5, read-out: Solubility pH 7.5 Concentration
# [7] = bistrispropane buffer, pH 6.0, read-out: Solubility pH 6.0 Concentration
# [8] = bistrispropane buffer, pH 7.0, read-out: Solubility pH 7.0 Concentration
# [9] = bistrispropane buffer, pH 8.0, read-out: Solubility pH 8.0 Concentration
# [10] = glycylglycine buffer, pH 3.0, read-out: Solubility pH 3.0 Concentration
# [11] = glycylglycine buffer, pH 4.0, read-out: Solubility pH 4.0 Concentration
# [12] = glycylglycine buffer, pH 5.0, read-out: Solubility pH 5.0 Concentration
SMILES,IC50 [1],"Ratio hCT/hAmylin binding [1, 3]","Ratio hCT/hAmylin binding [1, 4]","solubility at 18 h [2, 5]","solubility at 18 h [2, 6]","solubility at 18 h [2, 7]","solubility at 18 h [2, 8]","solubility at 18 h [2, 9]","solubility at 18 h [2, 10]","solubility at 18 h [2, 11]","solubility at 18 h [2, 12]","Ratio hCT/hAmylin binding ([1]; Table 5a, selectivity, hCTR bind IC50 / hAmylin-R bind IC50)","Ratio hCT/hAmylin binding ([1]; Table 5b, selectivity, hCTR bind IC50 / hAmylin-R bind IC50)","Ratio hCT/hAmylin binding ([1]; Table 5c, selectivity, hCTR bind IC50 / hAmylin-R bind IC50)","Ratio hCT/hAmylin binding ([1]; Table 7a (preferred compounds), human binding selectivity, included for comparison)",Ratio hCT/hAmylin binding ([1]; ratio of human calcitonin receptor binding IC50 to human amylin receptor binding IC50)
CC[C@H](C)[C@H](NC(=O)[C@H](C)NC(=O)CNC(=O)[C@H](Cc1ccccc1)NC(=O)[C@H](CC(N)=O)NC(=O)[C@@H]1CCCN1C(=O)[C@H](CO)NC(=O)[C@H](CO)NC(=O)[C@H](Cc1c[nH]cn1)NC(=O)[C@H](CCCNC(=N)N)NC(=O)[C@H](CC(C)C)NC(=O)[C@H](Cc1ccccc1)NC(=O)[C@H](CCC(=O)O)NC(=O)[C@H](C)NC(=O)[C@H](CC(C)C)NC(=O)[C@H](CCCNC(=N)N)NC(=O)[C@H](CCC(N)=O)NC(=O)[C@@H](NC(=O)[C@H](C)NC(=O)[C@@H]1CSSC[C@H](NC(=O)[C@H](CCCCN)NC(=O)CC[C@H](NC(=O)CCCCCCCCCCCCCCCCCCC(=O)O)C(=O)O)C(=O)N[C@@H](CC(N)=O)C(=O)N[C@@H]([C@@H](C)O)C(=O)N[C@@H](C)C(=O)N[C@@H]([C@@H](C)O)C(=O)N1)[C@@H](C)O)C(=O)N1CCC[C@H]1C(=O)N[C@@H](CO)C(=O)N[C@@H](CO)C(=O)N[C@H](C(=O)N[C@@H](CC(N)=O)C(=O)N[C@H](C(=O)NCC(=O)N[C@@H](CO)C(=O)N[C@@H](CC(=O)O)C(=O)N[C@H](C(=O)N1CCC[C@H]1C(N)=O)[C@@H](C)O)C(C)C)[C@@H](C)O [Example 11] ({C20 diacid-γGlu}-KCNTATCATQRLAEFLRHSSPNFGAIPSSTNVGSDTP-NH2; disulfide 2-7 (inferred)),0.105 nM,1.0,1.0,≥ 200 µM,≥ 200 µM,≥ 200 µM,≥ 200 µM,≥ 200 µM,≥ 200 µM,≥ 200 µM,≥ 200 µM,–,–,–,–,–
CC[C@H](C)[C@H](NC(=O)[C@H](C)NC(=O)CNC(=O)[C@H](Cc1ccccc1)NC(=O)[C@H](CC(N)=O)NC(=O)[C@@H]1CCCN1C(=O)[C@H](CO)NC(=O)[C@H](CO)NC(=O)[C@H](Cc1c[nH]cn1)NC(=O)[C@H](CCCNC(=N)N)NC(=O)[C@H](CC(C)C)NC(=O)[C@H](Cc1ccccc1)NC(=O)[C@H](CC(=O)O)NC(=O)[C@H](C)NC(=O)[C@H](CC(C)C)NC(=O)[C@H](CCCNC(=N)N)NC(=O)[C@H](CCC(N)=O)NC(=O)[C@@H](NC(=O)[C@H](C)NC(=O)[C@@H]1CSSC[C@H](NC(=O)[C@H](CCCCN)NC(=O)CC[C@H](NC(=O)CCCCCCCCCCCCCCCCCCC(=O)O)C(=O)O)C(=O)N[C@@H](CC(N)=O)C(=O)N[C@@H]([C@@H](C)O)C(=O)N[C@@H](C)C(=O)N[C@@H]([C@@H](C)O)C(=O)N1)[C@@H](C)O)C(=O)N1CCC[C@H]1C(=O)N[C@@H](CO)C(=O)N[C@@H](CO)C(=O)N[C@H](C(=O)N[C@@H](CC(N)=O)C(=O)N[C@H](C(=O)NCC(=O)N[C@@H](CO)C(=O)N[C@@H](CC(N)=O)C(=O)N[C@H](C(=O)N1CCC[C@H]1C(N)=O)[C@@H](C)O)C(C)C)[C@@H](C)O [Example 10] ({C20 diacid-γGlu}-KCNTATCATQRLADFLRHSSPNFGAIPSSTNVGSNTP-NH2; disulfide 2-7 (inferred)),0.082 nM,1.2,1.2,≥ 200 µM,≥ 200 µM,≥ 200 µM,≥ 200 µM,≥ 200 µM,≥ 200 µM,≥ 200 µM,≥ 200 µM,–,–,–,–,–
CC[C@H](C)[C@H](NC(=O)[C@H](C)NC(=O)CNC(=O)[C@H](Cc1ccccc1)NC(=O)[C@H](CC(N)=O)NC(=O)[C@@H]1CCCN1C(=O)[C@H](CO)NC(=O)[C@H](CO)NC(=O)[C@H](Cc1c[nH]cn1)NC(=O)[C@H](CCCNC(=N)N)NC(=O)[C@H](CC(C)C)NC(=O)[C@H](Cc1ccccc1)NC(=O)[C@H](CCC(=O)O)NC(=O)[C@H](C)NC(=O)[C@H](CC(C)C)NC(=O)[C@H](CCCNC(=N)N)NC(=O)[C@H](CCC(N)=O)NC(=O)[C@@H](NC(=O)[C@H](C)NC(=O)[C@@H]1CSSC[C@H](NC(=O)[C@H](CCCCN)NC(=O)CC[C@H](NC(=O)CCCCCCCCCCCCCCCCCCC(=O)O)C(=O)O)C(=O)N[C@@H](CC(N)=O)C(=O)N[C@@H]([C@@H](C)O)C(=O)N[C@@H](C)C(=O)N[C@@H]([C@@H](C)O)C(=O)N1)[C@@H](C)O)C(=O)N1CCC[C@H]1C(=O)N[C@@H](CO)C(=O)N[C@@H](CO)C(=O)N[C@H](C(=O)N[C@@H](CC(N)=O)C(=O)N[C@H](C(=O)NCC(=O)N[C@@H](CO)C(=O)N[C@@H](CC(N)=O)C(=O)N[C@H](C(=O)N1CCC[C@H]1C(N)=O)[C@@H](C)O)C(C)C)[C@@H](C)O [Example 8] ({C20 diacid-γGlu}-KCNTATCATQRLAEFLRHSSPNFGAIPSSTNVGSNTP-NH2; disulfide 2-7),0.072 nM,0.5,0.5,≥ 200 µM,≥ 200 µM,≥ 200 µM,≥ 200 µM,≥ 200 µM,≥ 200 µM,≥ 200 µM,≥ 200 µM,–,–,–,–,–
CC[C@H](C)[C@H](NC(=O)[C@H](C)NC(=O)CNC(=O)[C@H](Cc1ccccc1)NC(=O)[C@H](CC(N)=O)NC(=O)[C@@H]1CCCN1C(=O)[C@H](CO)NC(=O)[C@H](CO)NC(=O)[C@H](Cc1c[nH]cn1)NC(=O)[C@H](CCCNC(=N)N)NC(=O)[C@H](CC(C)C)NC(=O)[C@H](Cc1ccccc1)NC(=O)[C@H](CCC(=O)O)NC(=O)[C@H](C)NC(=O)[C@H](CC(C)C)NC(=O)[C@H](CCCNC(=N)N)NC(=O)[C@H](CCC(N)=O)NC(=O)[C@@H](NC(=O)[C@H](C)NC(=O)[C@@H]1CSSC[C@H](NC(=O)[C@H](CCCCN)NC(=O)CC[C@H](NC(=O)CC[C@H](NC(=O)CCCCCCCCCCCCCCCCCCC(=O)O)C(=O)O)C(=O)O)C(=O)N[C@@H](CC(N)=O)C(=O)N[C@@H]([C@@H](C)O)C(=O)N[C@@H](C)C(=O)N[C@@H]([C@@H](C)O)C(=O)N1)[C@@H](C)O)C(=O)N1CCC[C@H]1C(=O)N[C@@H](CO)C(=O)N[C@@H](CO)C(=O)N[C@H](C(=O)N[C@@H](CC(N)=O)C(=O)N[C@H](C(=O)NCC(=O)N[C@@H](CO)C(=O)N[C@@H](CC(N)=O)C(=O)N[C@H](C(=O)N[C@@H](Cc1ccc(O)cc1)C(N)=O)[C@@H](C)O)C(C)C)[C@@H](C)O [Example 15] ({C20 diacid-γGlu-γGlu}-KCNTATCATQRLAEFLRHSSPNFGAIPSSTNVGSNTY-NH2; disulfide 2-7 (inferred)),0.597 nM,26.0,26.0,≥ 200 µM,≥ 200 µM,≥ 200 µM,≥ 200 µM,≥ 200 µM,≥ 200 µM,≥ 200 µM,≥ 200 µM,26.0,26.0,26.0,26.0,26.0
